Results from patent publication US9238656B2, “Imidazo[4,5-b]pyridine derivatives as ALK and JAK modulators for the treatment of proliferative disorders” (priority 2012, dated 2016).

What was measured:
[1] = target: baculovirus-expressed ALK (Homo sapiens, UniProt Q9UM73); experiment: ALK kinase inhibition, TRF/ELISA; format: biochemical; conditions: read-out: ALK Potency
How it was run: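 Plates were coated with GST-PLC-γ substrate (10 μg/mL) and the reaction was started with 30 ng/mL ALK, running 15 min at 37° C. Phosphotyrosine was detected by time-resolved fluorescence with Eu-labeled PT66 antibody. IC50s came from variable-slope sigmoidal fits of percent inhibition versus log concentration.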

[2] = target: baculovirus-expressed JAK2 kinase (Homo sapiens, UniProt O60674); experiment: biochemical; conditions: 0.2 μM ATP; read-out: JAK2 Potency
How it was run: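 Time-resolved fluorescence kinase assay using 15 ng/mL baculovirus-expressed JAK2 on Neutravidin-captured biotinylated 15-mer peptide substrate, reaction 20 min at room temperature. IC50 from percent inhibition versus log concentration, sigmoidal variable-slope fit.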

baculovirus-expressed ALK, sequence (Q9UM73 19-1620): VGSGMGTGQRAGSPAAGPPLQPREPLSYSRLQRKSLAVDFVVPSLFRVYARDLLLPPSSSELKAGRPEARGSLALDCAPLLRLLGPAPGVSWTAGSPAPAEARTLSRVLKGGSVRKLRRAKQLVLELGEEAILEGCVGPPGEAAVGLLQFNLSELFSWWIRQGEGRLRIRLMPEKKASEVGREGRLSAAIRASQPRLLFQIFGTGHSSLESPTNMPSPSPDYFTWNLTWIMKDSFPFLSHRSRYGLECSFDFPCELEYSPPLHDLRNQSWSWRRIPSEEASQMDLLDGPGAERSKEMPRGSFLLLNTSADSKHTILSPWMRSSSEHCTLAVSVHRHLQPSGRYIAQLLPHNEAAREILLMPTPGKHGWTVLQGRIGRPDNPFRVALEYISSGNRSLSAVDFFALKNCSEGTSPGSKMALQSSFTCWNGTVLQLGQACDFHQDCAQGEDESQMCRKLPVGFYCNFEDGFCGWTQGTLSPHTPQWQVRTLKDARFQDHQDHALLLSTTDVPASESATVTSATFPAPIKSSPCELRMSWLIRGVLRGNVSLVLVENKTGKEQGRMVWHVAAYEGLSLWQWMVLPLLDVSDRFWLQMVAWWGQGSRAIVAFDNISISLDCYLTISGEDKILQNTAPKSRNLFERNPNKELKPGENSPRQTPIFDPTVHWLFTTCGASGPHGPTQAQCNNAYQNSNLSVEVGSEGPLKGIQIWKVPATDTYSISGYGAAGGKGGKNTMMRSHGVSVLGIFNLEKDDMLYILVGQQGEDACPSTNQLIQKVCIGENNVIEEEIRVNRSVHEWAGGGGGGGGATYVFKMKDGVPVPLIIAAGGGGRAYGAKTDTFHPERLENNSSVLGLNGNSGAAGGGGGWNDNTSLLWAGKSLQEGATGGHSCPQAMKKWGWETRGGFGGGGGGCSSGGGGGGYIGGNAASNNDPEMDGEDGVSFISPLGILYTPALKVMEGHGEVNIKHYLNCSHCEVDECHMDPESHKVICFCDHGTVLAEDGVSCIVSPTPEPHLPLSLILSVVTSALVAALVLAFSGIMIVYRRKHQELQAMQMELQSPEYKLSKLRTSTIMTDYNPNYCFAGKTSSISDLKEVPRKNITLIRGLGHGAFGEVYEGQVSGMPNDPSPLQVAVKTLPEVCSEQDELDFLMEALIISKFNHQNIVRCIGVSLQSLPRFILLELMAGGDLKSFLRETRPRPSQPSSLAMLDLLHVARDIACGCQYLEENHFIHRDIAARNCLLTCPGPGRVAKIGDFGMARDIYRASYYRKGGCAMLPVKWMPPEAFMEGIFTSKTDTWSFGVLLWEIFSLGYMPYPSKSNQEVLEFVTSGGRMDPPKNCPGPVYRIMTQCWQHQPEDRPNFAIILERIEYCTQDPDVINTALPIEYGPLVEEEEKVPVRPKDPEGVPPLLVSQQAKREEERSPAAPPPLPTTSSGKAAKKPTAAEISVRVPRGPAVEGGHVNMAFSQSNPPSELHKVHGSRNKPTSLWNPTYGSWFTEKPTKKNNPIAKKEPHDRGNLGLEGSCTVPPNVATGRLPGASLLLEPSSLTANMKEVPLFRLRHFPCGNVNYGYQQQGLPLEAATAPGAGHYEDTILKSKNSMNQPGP
baculovirus-expressed JAK2 kinase, sequence (O60674 whole entry): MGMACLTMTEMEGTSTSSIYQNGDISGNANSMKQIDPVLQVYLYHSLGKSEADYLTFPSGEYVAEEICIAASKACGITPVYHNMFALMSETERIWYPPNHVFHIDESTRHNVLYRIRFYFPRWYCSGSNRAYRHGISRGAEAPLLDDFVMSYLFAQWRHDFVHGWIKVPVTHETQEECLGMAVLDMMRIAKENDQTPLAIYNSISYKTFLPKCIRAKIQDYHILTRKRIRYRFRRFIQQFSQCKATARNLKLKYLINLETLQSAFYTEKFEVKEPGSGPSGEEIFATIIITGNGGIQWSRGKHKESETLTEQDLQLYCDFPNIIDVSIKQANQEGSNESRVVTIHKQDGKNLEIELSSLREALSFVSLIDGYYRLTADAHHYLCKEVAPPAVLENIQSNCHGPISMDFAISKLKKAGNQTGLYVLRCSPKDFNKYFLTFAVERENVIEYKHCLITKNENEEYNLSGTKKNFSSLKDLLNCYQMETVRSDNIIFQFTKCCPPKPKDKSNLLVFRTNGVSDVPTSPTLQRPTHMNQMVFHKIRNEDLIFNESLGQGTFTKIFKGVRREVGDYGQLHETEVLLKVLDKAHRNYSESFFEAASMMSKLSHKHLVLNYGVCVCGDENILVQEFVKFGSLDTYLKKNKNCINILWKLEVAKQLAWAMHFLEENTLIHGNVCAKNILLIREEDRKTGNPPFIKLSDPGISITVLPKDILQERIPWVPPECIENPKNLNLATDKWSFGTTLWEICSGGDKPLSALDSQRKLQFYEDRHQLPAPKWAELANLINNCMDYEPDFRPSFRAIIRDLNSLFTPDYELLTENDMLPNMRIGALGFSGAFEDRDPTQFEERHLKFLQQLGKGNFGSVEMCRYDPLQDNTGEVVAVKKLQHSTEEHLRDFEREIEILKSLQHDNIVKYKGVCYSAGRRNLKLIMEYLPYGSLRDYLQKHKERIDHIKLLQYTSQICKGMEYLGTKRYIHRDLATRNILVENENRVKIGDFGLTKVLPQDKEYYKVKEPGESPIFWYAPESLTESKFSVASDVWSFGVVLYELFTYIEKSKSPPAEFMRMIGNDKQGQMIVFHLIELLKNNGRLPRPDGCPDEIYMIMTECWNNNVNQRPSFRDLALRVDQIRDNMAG

SMILES | IC50 [1] | IC50 [2]
NC(=O)[C@@H]1[C@H](Nc2c(Cl)cnc3[nH]c(-c4ccc(C(=O)O)cc4)nc23)[C@H]2C=C[C@@H]1C2 [Compound CCXVIII, 4-(7-((1R,2R,3S,4S)-3-carbamoylbicyclo[2.2.1]hept-5-en-2-ylamino)-6-chloro-3H-imidazo[4,5-b]pyridin-2-yl)benzoic acid] | 0.1 to 1 µM | < 0.1 µM
CN1CCN(c2nc(Cl)c(-c3nc4c(N[C@H]5[C@@H](C(=O)N(C)C)[C@@H]6C=C[C@H]5C6)c(Cl)cnc4[nH]3)s2)CC1 [Compound CCLXIV, (1S,2S,3R,4R)-3-((6-chloro-2-(4-chloro-2-(4-methylpiperazin-1-yl)thiazol-5-yl)-3H-imidazo[4,5-b]pyridin-7-yl)amino)-N,N-dimethylbicyclo[2.2.1]hept-5-ene-2-carboxamide] | < 0.1 µM | < 0.1 µM
NC(=O)[C@@H]1[C@H](Nc2c(Cl)cnc3[nH]c(-c4cccc(C(=O)NCC(=O)O)c4)nc23)[C@H]2C=C[C@@H]1C2 [Compound CCXXVII, 2-(3-(7-((1R,2R,3S,4S)-3-carbamoylbicyclo[2.2.1]hept-5-en-2-ylamino)-6-chloro-3H-imidazo[4,5-b]213yridine-2-yl)benzamido)acetic acid] | 1 to 10 µM | < 0.1 µM
COc1cc(N2CCOCC2)ccc1-c1nc2c(N[C@H]3[C@@H](C(N)=O)[C@@H]4CC[C@H]3O4)c(Cl)cnc2[nH]1 [Compound CCVI, (1S,2R,3S,4R)-3-(6-chloro-2-(2-methoxy-4-morpholinophenyl)-3H-imidazo[4,5-b]pyridin-7-ylamino)-7-oxabicyclo[2.2.1]heptane-2-carboxamide] | 0.1 to 1 µM | 1 to 10 µM
Cn1cc(-c2nc3c(N[C@@]45CCC(C)(C(O)C4)C5(C)C)c(Cl)cnc3[nH]2)cn1 (stereo partly drawn) [Compound CCII, (4S)-4-(6-chloro-2-(1-methyl-1H-pyrazol-4-yl)-3H-imidazo[4,5-b]pyridin-7-ylamino)-1,7,7-trimethylbicyclo[2.2.1]heptan-2-ol] | > 10 µM | < 0.1 µM
CN1CCN(C(=O)c2ccc(-c3nc4c(N[C@H]5[C@@H](C(N)=O)[C@@H]6C=C[C@H]5C6)c(Cl)cnc4[nH]3)cc2)CC1 [Compound CCXXII, (1S,2S,3R,4R)-3-(6-chloro-2-(4-(4-methylpiperazine-1-carbonyl)phenyl)-3H-imidazo[4,5-b]pyridin-7-ylamino)bicyclo[2.2.1]hept-5-ene-2-carboxamide] | < 0.1 µM | < 0.1 µM
CN(C)CCNC(=O)c1cccc(-c2nc3c(N[C@H]4[C@@H](C(N)=O)[C@@H]5C=C[C@H]4C5)c(Cl)cnc3[nH]2)c1 [Compound CCXXXI, (1S,2S,3R,4R)-3-(6-chloro-2-(3-(2-(dimethylamino)ethylcarbamoyl)phenyl)-3H-imidazo[4,5-b]pyridine-7-ylamino)pyridin[2.2.1]hept-5-ene-2-carboxamide] | < 0.1 µM | < 0.1 µM
CN1CCC(Oc2ccc(-c3nc4c(N[C@H]5[C@@H](C(N)=O)[C@@H]6C=C[C@H]5C6)c(Cl)cnc4[nH]3)cc2)CC1 [Compound CCXLV, (1S,2S,3R,4R)-3-(6-chloro-2-(4-(1-methylpiperidin-4-yloxy)phenyl)-3H-imidazo[4,5-b]pyridin-7-ylamino)bicyclo[2.2.1]hept-5-ene-2-carboxamide] | < 0.1 µM | < 0.1 µM

Other lines, results leading:

IC50 [1] | IC50 [2] | SMILES
0.1 to 1 µM | 0.1 to 1 µM | CC(C)NC(=O)[C@@H]1[C@H](Nc2c(Cl)cnc3[nH]c(-c4cnn(C)c4)nc23)[C@H]2C=C[C@@H]1C2 [Compound CLXXXVII]
0.1 to 1 µM | < 0.1 µM | NC(=O)[C@@H]1[C@H](Nc2c(Cl)cnc3[nH]c(-c4cccc(O)c4)nc23)[C@H]2C=C[C@@H]1C2 [Compound CCXXXIII, (1S,2S,3R,4R)-3-(6-chloro-2-(3-hydroxyphenyl)-3H-imidazo[4,5-b]pyridin-7-ylamino)pyridin[2.2.1]hept-5-ene-2-carboxamide]
0.1 to 1 µM | < 0.1 µM | N#Cc1ccc(-c2nc3c(N[C@H]4[C@@H](C(N)=O)[C@@H]5C=C[C@H]4C5)c(Cl)cnc3[nH]2)cc1 [Compound CXLV, (1S,2S,3R,4R)-3-[6-Chloro-2-(4-cyano-phenyl)-3H-imidazo[4,5-b]pyridin-7-ylamino]-bicyclo[2.2.1]hept-5-ene-2-carboxylic acid amide]
0.1 to 1 µM | > 10 µM | COc1ccc(CN2CCOCC2)cc1-c1nc2c(N[C@@H]3CCCC[C@H]3NS(C)(=O)=O)c(Cl)cnc2[nH]1 [Compound LXXIV, N-{(1R,2R)-2-[6-Chloro-2-(2-methoxy-5-morpholin-4-ylmethyl-phenyl)-3H-imidazo[4,5-b]pyridine-7-ylamino]-cyclohexyl}-methanesulfonamide]
< 0.1 µM | < 0.1 µM | NC(=O)[C@@H]1[C@H](Nc2c(Cl)cnc3[nH]c(-c4ccc(OCCN5CCOCC5)cc4)nc23)[C@H]2C=C[C@@H]1C2 [Compound CCXXXIX, (1S,2S,3R,4R)-3-(6-chloro-2-(4-(2-morpholinoethoxy)phenyl)-3H-imidazo[4,5-b]pyridin-7-ylamino)bicyclo[2.2.1]hept-5-ene-2-carboxamide]
0.1 to 1 µM | < 0.1 µM | NC(=O)[C@@H]1[C@H](Nc2c(Cl)cnc3[nH]c(-c4ccnc(N5CCOCC5)c4)nc23)[C@H]2C=C[C@@H]1C2 [Compound CXXVI, (1S,2S,3R,4R)-3-[6-Chloro-2-(2-morpholin-4-yl-pyridin-4-yl)-3H-imidazo[4,5-b]pyridin-7-ylamino]-bicyclo[2.2.1]hept-5-ene-2-carboxylic acid amide]
< 0.1 µM | 0.1 to 1 µM | O=C(NC1CC1)[C@@H]1[C@H](Nc2c(Cl)cnc3[nH]c(-c4sc(N5CCOCC5)nc4Cl)nc23)[C@H]2C=C[C@@H]1C2 [Compound CLXXIV, (1S,2S,3R,4R)-3-[6-Chloro-2-(4-chloro-2-morpholin-4-yl-thiazol-5-yl)-3H-imidazo[4,5-b]pyridin-7-ylamino]-bicyclo[2.2.1]hept-5-ene-2-carboxylic acid cyclopropylamide]
0.1 to 1 µM | 0.1 to 1 µM | COc1ccc(-c2nc3c(N[C@H]4[C@@H](C(N)=O)[C@@H]5C=C[C@H]4C5)c(Cl)cnc3[nH]2)c(C2CCN(C[C@H](O)CO)CC2)c1 [Compound XXXIII]
< 0.1 µM | < 0.1 µM | COC[C@H](O)CN1CCC(n2cc(-c3nc4c(N[C@H]5[C@@H](C(N)=O)[C@@H]6C=C[C@H]5C6)c(Cl)cnc4[nH]3)cn2)CC1 [Compound LX, (1S,2S,3R,4R)-3-(6-Chloro-2-{1-[1-((R)-2-hydroxy-3-methoxy-propyl)-piperidin-4-yl]-1H-pyrazol-4-yl}-3H-imidazo[4,5-b]pyridine-7-ylamino)-bicyclo[2.2.1]hept-5-ene-2-carboxylic acid amide]
0.1 to 1 µM | < 0.1 µM | CN(C)c1cccc(-c2nc3c(N[C@H]4[C@@H](C(N)=O)[C@@H]5C=C[C@H]4C5)c(Cl)cnc3[nH]2)c1 [Compound XII, (1S,2S,3R,4R)-3-[6-Chloro-2-(3-dimethylamino-phenyl)-3H-imidazo[4,5-b]pyridin-7-ylamino]-bicyclo[2.2.1]hept-5-ene-2-carboxylic acid amide]
0.1 to 1 µM | < 0.1 µM | NC(=O)COc1cccc(-c2nc3c(N[C@H]4[C@@H](C(N)=O)[C@@H]5C=C[C@H]4C5)c(Cl)cnc3[nH]2)c1 [Compound CCXXXVIII, (1S,2S,3R,4R)-3-(2-(3-(2-amino-2-oxoethoxy)phenyl)-6-chloro-3H-imidazo[4,5-b]pyridin-7-ylamino)bicyclo[2.2.1]hept-5-ene-2-carboxamide]
